# Measurements taken from US20260157993A1, “USE OF 2-METHYLOXOLANE FOR FEEDING OVIPAROUS ANIMALS” (ECOXTRACT, priority 2022, published 2026).
# Experiments:
# human = details: EFSA Opinion of Mar. 15, 2022; cited from earlier work
# domestic laying hens = test: Egg production of domestic laying hens after oral administration in capsules; assay type: in vivo, chicken; details: for Number of eggs (average number of eggs per day laid by 4 chickens): oral capsules, control 3.5
# Description: In this example, domestic laying hens have been divided into four groups: • the 4 chickens of the control group have not ingested 2-methyloxolane. • the 12 chickens of the N×1 group have ingested pure liquid 2-methyloxolane in capsules. The ingested dose of pure liquid 2-methyloxoane was 3.18 mg/kg of the chicken/day, i.e. 40 mg/kg in the daily ration, • the 12 chickens of the N×5 group have ingested pure liquid 2-methyloxolane in capsules. The ingested dose of pure liquid 2-methyloxoane was 15.88 mg/kg of the chicken/day, i.e. 200 mg/kg in the daily ration, and • the 12 chickens of the N×10 group have ingested pure liquid 2-methyloxolane in capsules. The ingested dose of pure liquid 2-methyloxoane was 31.77 mg/kg of the chicken/day, i.e. 400 mg/kg in the daily ration (the group N×10). The egg production of each group has been monitored in order to statistically validate the significance of the effect of an oral administration of 2-methyloxolane on egg production. The statistical processing is as follows: A one-factor analysis of variance (ANOVA) has been carried out using the XLSTAT 2020.2.1 software on MS EXCEL 16.0.15225. […] In case of a significant difference between the averages, a Student's t-test with a level of significance of 5% will be applied for the comparison in pairs using the same software. In total, 1,115 eggs have been counted throughout the observations. Table 1 hereinbelow presents the average of the number of eggs per day laid by 4 chickens as a function of their basking group.
# rats = details: 3-month ingestion; cited from earlier work
# average human of 50 kg = details: ICHQ3C R8, solvent to be limited; cited from earlier work
SMILES,Human exposure limit recommended by EFSA (human),"Effect of oral administration on number of laid eggs per chicken (domestic laying hens; 40 to 400 mg/kg in daily ration, no apparent dose effect, ANOVA and Student's t-test, 5% level)","Number of eggs (average number of eggs per day laid by 4 chickens) (domestic laying hens; N × 1 group: 3.18 mg/kg of the chicken/day, i.e. 40 mg/kg in the daily ration)","Number of eggs (average number of eggs per day laid by 4 chickens) (domestic laying hens; N × 5 group: 15.88 mg/kg of the chicken/day, i.e. 200 mg/kg in the daily ration)","Number of eggs (average number of eggs per day laid by 4 chickens) (domestic laying hens; N × 10 group: 31.77 mg/kg of the chicken/day, i.e. 400 mg/kg in the daily ration)",More eggs laid per week than animal whose feed is not supplemented (domestic laying hens; feed supplemented by the dietary supplement comprising 2-methyloxolane),Dose with no undesirable effect observed (rats),Acceptable Daily Dose (average human of 50 kg)
CC1CCCO1 (centres unmarked) [2-methyloxolane],1 mg/kg human body weight per day,significantly increases,3.9,3.9,3.9,up to 14%,250 mg/kg body weight per day,–
CCCCCC [hexane],–,–,–,–,–,–,–,2.9 mg
